{"source": "patent US20150141549A1", "about": "“ANTIBIOTIC PARTICLES AND PRODUCTION METHOD THEREOF” (Japan EnviroChemicals, Ltd., priority 2012, published 2015)", "origin": "cited, not measured here", "data": [{"smiles": "CCCCNC(=O)OCC#CI", "note": "[IPBC, 3-iodo-2-propynylbutylcarbamate]", "values": [{"measurement": "water solubility", "value": 150, "unit": "ppm"}]}]}
